How the values were obtained:
[1] = biological target: BMP-2-inducible protein kinase (Homo sapiens) (UniProt Q9NSY1); assay: BIKe(h) Millipore kinase panel; details: Compound concentration 1.0 uM
[2] = biological target: Bone morphogenetic protein receptor type-2 (Homo sapiens) (UniProt Q13873); assay: BMPR2(h) Millipore kinase panel; details: Compound concentration 1.0 uM
[3] = biological target: Calcium/calmodulin-dependent protein kinase type 1G (Homo sapiens) (UniProt Q96NX5); assay: CaMKIgamma(h) Millipore kinase panel; details: Compound concentration 1.0 uM
[4] = biological target: Cyclin-dependent kinase 2/cyclin A (Homo sapiens) (UniProt P24941+P20248+P78396); assay: CDK2/cyclinA(h) Millipore kinase panel; type: protein-complex assay; details: Compound concentration 1.0 uM
[5] = biological target: RAF proto-oncogene serine/threonine-protein kinase (Homo sapiens) (UniProt P04049); assay: c-RAF(h) Millipore kinase panel; details: Compound concentration 1.0 uM
[6] = biological target: Ephrin type-A receptor 3 (Homo sapiens) (UniProt P29320); assay: EphA3(h) Millipore kinase panel; details: Compound concentration 1.0 uM
[7] = biological target: Receptor tyrosine-protein kinase erbB-4 (Homo sapiens) (UniProt Q15303); assay: ErbB4(h) Millipore kinase panel; details: Compound concentration 1.0 uM
[8] = biological target: Macrophage colony-stimulating factor 1 receptor (Homo sapiens) (UniProt P07333); assay: Fms(h) Millipore kinase panel; details: Compound concentration 1.0 uM
[9] = biological target: Beta-adrenergic receptor kinase 1 (Homo sapiens) (UniProt P25098); assay: GRK2(h) Millipore kinase panel; details: Compound concentration 1.0 uM
[10] = biological target: Insulin receptor (Homo sapiens) (UniProt P06213); assay: IR(h),activated Millipore kinase panel; details: Compound concentration 1.0 uM
[11] = biological target: Serine/threonine-protein kinase LATS2 (Homo sapiens) (UniProt Q9NRM7); assay: LATS2(h) Millipore kinase panel; details: Compound concentration 1.0 uM
Serine/threonine-protein kinase LATS2 (Homo sapiens), sequence (Q9NRM7 whole entry): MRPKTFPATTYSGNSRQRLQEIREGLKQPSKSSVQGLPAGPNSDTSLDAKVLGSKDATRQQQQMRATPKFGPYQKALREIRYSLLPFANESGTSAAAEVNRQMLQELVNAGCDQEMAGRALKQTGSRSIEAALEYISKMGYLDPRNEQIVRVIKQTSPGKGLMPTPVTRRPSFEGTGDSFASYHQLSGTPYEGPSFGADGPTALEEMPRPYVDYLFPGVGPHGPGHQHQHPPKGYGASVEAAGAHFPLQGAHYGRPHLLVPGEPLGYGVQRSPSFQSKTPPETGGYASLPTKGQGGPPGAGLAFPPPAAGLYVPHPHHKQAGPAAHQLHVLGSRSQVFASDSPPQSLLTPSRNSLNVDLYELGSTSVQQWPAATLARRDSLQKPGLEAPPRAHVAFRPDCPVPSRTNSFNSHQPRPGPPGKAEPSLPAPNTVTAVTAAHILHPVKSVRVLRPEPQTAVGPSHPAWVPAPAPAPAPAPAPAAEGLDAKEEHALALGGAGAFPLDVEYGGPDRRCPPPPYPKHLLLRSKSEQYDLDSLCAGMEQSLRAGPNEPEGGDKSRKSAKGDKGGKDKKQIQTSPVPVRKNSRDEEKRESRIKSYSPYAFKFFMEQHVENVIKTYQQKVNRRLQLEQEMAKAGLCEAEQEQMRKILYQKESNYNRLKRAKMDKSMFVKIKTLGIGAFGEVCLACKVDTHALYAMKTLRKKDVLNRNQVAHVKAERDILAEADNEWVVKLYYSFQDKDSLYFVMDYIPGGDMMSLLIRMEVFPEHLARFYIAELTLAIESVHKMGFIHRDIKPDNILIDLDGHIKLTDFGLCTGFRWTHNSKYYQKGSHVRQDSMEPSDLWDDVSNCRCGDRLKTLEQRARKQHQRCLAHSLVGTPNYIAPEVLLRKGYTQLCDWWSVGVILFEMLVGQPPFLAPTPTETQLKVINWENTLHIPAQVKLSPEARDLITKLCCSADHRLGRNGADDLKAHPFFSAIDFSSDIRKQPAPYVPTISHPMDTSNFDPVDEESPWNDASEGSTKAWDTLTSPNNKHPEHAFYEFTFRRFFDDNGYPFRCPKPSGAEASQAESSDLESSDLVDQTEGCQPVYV

[12] = biological target: Mitogen-activated protein kinase kinase kinase 2 (Homo sapiens) (UniProt Q9Y2U5); assay: MEKK2(h) Millipore kinase panel; details: Compound concentration 1.0 uM
[13] = biological target: MAP kinase-interacting serine/threonine-protein kinase 2 (Homo sapiens) (UniProt Q9HBH9); assay: Mnk2(h) Millipore kinase panel; details: Compound concentration 1.0 uM
[14] = biological target: RAC-alpha serine/threonine-protein kinase (Homo sapiens) (UniProt P31749); assay: PKBalpha(h) Millipore kinase panel; details: Compound concentration 1.0 uM
RAC-alpha serine/threonine-protein kinase (Homo sapiens), sequence (P31749 whole entry): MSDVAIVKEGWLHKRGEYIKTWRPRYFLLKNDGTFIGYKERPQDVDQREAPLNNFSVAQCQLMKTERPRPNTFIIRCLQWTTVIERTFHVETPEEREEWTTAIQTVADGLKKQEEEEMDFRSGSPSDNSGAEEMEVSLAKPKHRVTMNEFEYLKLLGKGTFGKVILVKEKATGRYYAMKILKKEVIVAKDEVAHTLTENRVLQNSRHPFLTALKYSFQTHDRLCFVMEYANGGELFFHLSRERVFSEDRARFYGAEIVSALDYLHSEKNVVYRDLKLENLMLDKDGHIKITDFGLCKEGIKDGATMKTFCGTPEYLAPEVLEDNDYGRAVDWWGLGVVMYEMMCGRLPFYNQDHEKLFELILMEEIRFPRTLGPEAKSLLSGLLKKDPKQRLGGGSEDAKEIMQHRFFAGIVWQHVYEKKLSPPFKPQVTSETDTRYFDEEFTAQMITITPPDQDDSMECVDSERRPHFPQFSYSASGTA

[15] = biological target: Receptor-interacting serine/threonine-protein kinase 1 (Homo sapiens) (UniProt Q13546); assay: RIPK1(h) Millipore kinase panel; details: Compound concentration 1.0 uM
[16] = biological target: Serine/threonine-protein kinase PLK2 (Homo sapiens) (UniProt Q9NYY3); assay: Snk(h) Millipore kinase panel; details: Compound concentration 1.0 uM
[17] = biological target: Tyrosine-protein kinase Srms (Homo sapiens) (UniProt Q9H3Y6); assay: SRMS(h) Millipore kinase panel; details: Compound concentration 1.0 uM
[18] = biological target: STE20/SPS1-related proline-alanine-rich protein kinase (Homo sapiens) (UniProt Q9UEW8); assay: STK39(h) Millipore kinase panel; details: Compound concentration 1.0 uM
[19] = biological target: Tau-tubulin kinase 1 (Homo sapiens) (UniProt Q5TCY1); assay: TTBK1(h) Millipore kinase panel; details: Compound concentration 1.0 uM
[20] = biological target: Serine/threonine-protein kinase ULK1 (Homo sapiens) (UniProt O75385); assay: ULK1(h) Millipore kinase panel; details: Compound concentration 1.0 uM
Serine/threonine-protein kinase ULK1 (Homo sapiens), sequence (O75385 whole entry): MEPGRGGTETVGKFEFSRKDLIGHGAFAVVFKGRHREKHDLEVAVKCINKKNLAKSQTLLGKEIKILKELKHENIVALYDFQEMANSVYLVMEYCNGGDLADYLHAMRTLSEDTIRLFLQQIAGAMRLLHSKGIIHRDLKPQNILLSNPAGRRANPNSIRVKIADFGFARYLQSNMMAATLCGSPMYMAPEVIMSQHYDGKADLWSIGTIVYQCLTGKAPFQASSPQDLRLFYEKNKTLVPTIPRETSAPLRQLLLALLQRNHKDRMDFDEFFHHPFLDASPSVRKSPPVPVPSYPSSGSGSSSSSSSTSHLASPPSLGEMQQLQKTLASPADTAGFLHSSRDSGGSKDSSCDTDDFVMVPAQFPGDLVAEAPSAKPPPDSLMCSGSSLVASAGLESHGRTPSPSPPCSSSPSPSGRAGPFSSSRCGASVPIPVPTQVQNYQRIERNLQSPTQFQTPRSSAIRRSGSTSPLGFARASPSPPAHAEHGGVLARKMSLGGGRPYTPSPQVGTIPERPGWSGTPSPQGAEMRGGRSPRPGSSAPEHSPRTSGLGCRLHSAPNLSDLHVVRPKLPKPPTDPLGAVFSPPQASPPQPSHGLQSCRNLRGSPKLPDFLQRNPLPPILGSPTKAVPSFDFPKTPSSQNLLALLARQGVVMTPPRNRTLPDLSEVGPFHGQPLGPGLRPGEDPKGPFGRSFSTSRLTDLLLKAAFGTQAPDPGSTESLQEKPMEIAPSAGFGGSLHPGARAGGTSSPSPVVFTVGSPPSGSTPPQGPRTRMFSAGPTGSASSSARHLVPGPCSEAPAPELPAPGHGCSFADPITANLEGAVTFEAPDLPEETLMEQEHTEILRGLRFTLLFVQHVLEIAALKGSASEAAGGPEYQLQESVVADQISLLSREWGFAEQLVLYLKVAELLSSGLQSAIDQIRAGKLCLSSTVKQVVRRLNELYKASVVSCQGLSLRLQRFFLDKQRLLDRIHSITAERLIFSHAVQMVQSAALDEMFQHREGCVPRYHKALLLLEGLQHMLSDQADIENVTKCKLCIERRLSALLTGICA

[21] = biological target: Wee1-like protein kinase 2 (Homo sapiens) (UniProt P0C1S8); assay: Wee1B(h) Millipore kinase panel; details: Compound concentration 1.0 uM
Wee1-like protein kinase 2 (Homo sapiens), sequence (P0C1S8 whole entry, looked up): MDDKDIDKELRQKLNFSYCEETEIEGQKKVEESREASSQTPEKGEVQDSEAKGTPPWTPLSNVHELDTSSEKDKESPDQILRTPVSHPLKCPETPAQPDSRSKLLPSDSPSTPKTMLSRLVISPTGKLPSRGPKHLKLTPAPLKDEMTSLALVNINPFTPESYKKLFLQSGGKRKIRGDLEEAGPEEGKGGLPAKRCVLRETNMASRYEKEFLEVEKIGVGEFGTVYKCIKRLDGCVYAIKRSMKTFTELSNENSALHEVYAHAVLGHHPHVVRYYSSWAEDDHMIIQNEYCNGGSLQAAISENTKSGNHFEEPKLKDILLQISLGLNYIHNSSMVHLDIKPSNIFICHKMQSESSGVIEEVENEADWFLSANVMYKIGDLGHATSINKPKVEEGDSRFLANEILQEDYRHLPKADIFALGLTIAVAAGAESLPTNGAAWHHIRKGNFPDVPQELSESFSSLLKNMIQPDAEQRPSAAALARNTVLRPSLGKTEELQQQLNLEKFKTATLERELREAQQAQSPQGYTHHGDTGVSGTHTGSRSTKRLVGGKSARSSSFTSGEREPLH

[22] = biological target: Serine/threonine-protein kinase WNK4 (Homo sapiens) (UniProt Q96J92); assay: WNK4(h) Millipore kinase panel; details: Compound concentration 1.0 uM
[23] = biological target: Tyrosine-protein kinase ZAP-70 (Homo sapiens) (UniProt P43403); assay: ZAP_70(h) Millipore kinase panel; details: Compound concentration 1.0 uM
[24] = biological target: PI3K p110 beta/p85 alpha (Homo sapiens) (UniProt P27986+P42338); assay: PI3 Kinase (p110b/p85a)(h) Millipore kinase panel; type: protein-complex assay; details: Compound concentration 1.0 uM
[25] = biological target: 3',5'-cyclic-AMP phosphodiesterase 4D (Homo sapiens) (UniProt Q08499); assay: Inhibition of Phosphodiesterase PDE4D2 at 10 µM in the Eurofins-Panlabs enzyme assay (Eurofins_assay_154420); set-up: substrate with concentration; details: Compound concentration 10.0 uM
3',5'-cyclic-AMP phosphodiesterase 4D (Homo sapiens), sequence (Q08499 whole entry): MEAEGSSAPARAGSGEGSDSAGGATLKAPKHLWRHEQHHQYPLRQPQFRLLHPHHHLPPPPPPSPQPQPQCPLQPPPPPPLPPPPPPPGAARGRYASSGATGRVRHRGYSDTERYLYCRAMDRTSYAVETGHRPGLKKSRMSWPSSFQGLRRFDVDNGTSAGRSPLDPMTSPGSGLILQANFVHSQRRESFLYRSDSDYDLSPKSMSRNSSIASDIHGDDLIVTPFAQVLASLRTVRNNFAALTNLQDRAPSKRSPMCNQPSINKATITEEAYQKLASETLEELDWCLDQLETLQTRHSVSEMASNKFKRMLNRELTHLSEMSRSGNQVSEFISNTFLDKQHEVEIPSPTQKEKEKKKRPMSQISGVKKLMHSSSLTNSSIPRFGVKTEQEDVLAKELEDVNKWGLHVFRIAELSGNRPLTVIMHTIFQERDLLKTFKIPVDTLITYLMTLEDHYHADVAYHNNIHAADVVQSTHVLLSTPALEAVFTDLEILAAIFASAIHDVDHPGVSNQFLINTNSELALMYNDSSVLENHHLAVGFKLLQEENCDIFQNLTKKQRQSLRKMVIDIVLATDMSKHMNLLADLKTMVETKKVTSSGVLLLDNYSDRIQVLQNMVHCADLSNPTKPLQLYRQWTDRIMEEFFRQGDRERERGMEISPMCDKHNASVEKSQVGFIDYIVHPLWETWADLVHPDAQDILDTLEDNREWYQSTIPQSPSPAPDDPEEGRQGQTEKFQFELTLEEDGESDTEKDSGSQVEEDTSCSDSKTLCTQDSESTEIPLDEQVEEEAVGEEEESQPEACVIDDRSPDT

[26] = biological target: 5-hydroxytryptamine receptor 2A (Homo sapiens) (UniProt P28223); details: Compound concentration 10.0 uM
[27] = biological target: Estrogen receptor (Homo sapiens) (UniProt P03372); details: Compound concentration 10.0 uM
[28] = biological target: Glutamate NMDA receptor (Rattus norvegicus) (UniProt P35439+Q00959+Q00960+Q00961+Q62645+Q8VHN2+Q9R1M7); details: Compound concentration 10.0 uM
[29] = biological target: T1, Muscarinic acetylcholine receptor M1 (Homo sapiens) (UniProt P11229); details: Compound concentration 10.0 uM
T1 sequence (whole entry): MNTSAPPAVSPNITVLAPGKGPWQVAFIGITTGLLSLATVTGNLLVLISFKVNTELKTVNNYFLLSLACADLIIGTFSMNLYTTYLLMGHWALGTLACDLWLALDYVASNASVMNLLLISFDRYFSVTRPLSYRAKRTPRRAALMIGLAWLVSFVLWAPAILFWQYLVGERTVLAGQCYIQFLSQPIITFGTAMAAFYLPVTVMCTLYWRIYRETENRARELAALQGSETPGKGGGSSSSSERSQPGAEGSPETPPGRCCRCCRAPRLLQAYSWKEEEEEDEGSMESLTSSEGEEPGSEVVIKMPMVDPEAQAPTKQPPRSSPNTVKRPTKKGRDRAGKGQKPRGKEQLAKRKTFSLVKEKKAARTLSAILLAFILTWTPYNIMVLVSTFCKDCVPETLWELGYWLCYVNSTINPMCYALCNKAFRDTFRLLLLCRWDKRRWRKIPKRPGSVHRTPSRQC

[30] = biological target: T2, 5-hydroxytryptamine receptor 1A (Homo sapiens) (UniProt P08908); details: Compound concentration 10.0 uM
T2 sequence (whole entry): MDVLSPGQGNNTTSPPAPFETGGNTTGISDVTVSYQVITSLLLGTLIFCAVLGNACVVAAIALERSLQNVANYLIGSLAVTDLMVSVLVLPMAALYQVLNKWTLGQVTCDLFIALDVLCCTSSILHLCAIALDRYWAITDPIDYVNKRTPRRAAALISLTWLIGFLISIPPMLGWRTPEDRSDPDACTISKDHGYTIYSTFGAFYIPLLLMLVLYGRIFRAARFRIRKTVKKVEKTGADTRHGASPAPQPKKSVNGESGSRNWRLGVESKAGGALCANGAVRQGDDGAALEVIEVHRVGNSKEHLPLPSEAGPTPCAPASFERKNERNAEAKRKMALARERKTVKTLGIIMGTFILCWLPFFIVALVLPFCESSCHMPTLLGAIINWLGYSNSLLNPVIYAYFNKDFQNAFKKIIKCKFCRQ

[31] = biological target: Progesterone receptor (Homo sapiens) (UniProt P06401); details: Compound concentration 10.0 uM

Measured: inhibition

Bone morphogenetic protein receptor type-2 (Homo sapiens), sequence (Q13873 whole entry): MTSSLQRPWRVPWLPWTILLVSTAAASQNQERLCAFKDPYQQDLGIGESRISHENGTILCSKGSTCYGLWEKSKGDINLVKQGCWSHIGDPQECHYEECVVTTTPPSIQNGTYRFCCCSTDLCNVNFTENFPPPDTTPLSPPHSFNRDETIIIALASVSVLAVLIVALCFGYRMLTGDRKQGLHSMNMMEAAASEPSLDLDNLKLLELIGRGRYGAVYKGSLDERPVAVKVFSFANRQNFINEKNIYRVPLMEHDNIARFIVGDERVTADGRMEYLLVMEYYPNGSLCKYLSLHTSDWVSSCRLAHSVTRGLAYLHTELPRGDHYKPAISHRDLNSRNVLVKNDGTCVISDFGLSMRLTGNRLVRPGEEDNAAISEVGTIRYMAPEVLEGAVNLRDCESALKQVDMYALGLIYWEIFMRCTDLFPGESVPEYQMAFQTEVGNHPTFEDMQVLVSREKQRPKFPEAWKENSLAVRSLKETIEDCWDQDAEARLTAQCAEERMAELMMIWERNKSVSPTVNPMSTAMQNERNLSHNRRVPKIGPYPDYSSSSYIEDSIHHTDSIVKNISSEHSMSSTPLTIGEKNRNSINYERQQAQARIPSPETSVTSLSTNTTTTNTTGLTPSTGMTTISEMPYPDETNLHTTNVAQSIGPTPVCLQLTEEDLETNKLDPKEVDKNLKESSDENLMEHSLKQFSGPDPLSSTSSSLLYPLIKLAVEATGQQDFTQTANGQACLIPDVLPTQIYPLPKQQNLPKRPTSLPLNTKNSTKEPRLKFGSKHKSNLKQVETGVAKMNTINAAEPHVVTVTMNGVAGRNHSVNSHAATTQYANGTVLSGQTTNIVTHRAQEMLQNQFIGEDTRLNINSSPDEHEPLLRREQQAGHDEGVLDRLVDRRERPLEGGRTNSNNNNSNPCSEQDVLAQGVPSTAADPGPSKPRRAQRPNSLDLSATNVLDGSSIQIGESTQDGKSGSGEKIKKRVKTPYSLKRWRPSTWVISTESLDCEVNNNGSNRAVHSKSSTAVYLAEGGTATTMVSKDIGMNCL

CC[C@@H](Nc1c(C#N)c(-c2ccc(-c3cccc(C)c3F)cc2)nc2cnccc12)C(=O)O [BAY-091]
inactive: [1] 5.17% | [2] 4.45% | [3] 14.4% | [4] -1.5% | [5] 36% | [6] 4.71% | [7] 3.85% | [8] -5.04% | [9] 1.9% | [10] 9.43% | [11] 1.83% | [12] 12.8% | [13] 3.39% | [14] -1.04% | [15] 21.2% | [16] 7.48% | [17] 26.3% | [18] 5.6% | [19] -2.05% | [20] 14.2% | [21] 9.64% | [22] 11.1% | [23] 2.99% | [24] 0.43% | [25] 38% | [26] -8.43% | [27] 10% | [28] -3% | [29] 13% | [30] 27% | [31] 29%
